Measurements taken from ChEMBL document CHEMBL5375968, “Peptide TK-HR from the Skin of Chinese Folk Medicine Frog Hoplobatrachus Rugulosus Accelerates Wound Healing via the Activation of the Neurokinin-1 Receptor” (J Med Chem, 2023).
The source made the active and inactive calls. No cut-off for these calls is given here.

Experiments:
Pseudomonas aeruginosa = assay: Antimicrobial activity against Pseudomonas aeruginosa ATCC 27853 assessed as microbial growth inhibition at 100 uM; assay type: functional, organism-based
Mus musculus [1] = species on record: Mus musculus; assay: Induction of wound healing in BALB/c mouse model of full-thickness wounds assessed as increase in IL-10 level in wound skin at 50 ug/ml, TOP bid measured after 4 days by ELISA; assay type: functional; conditions: dose 50.0 µg/ml, time 4.0 day
RAW264.7 [2] = assay: Induction of MCP-1 expression in mouse RAW264.7 cells incubated for 24 hrs by ELISA; assay type: functional, cell-based; conditions: dose 2.5-20 µM
[3] = Induction of wound healing in BALB/c mouse model of full-thickness wounds at 50 ug/ml, TOP bid pretreated with Aprepitant for 2 hrs followed by compound administration measured after 2 days (reference value: 35.3 %); assay type: functional; conditions: dose 50 µg/ml, time 2 day
RAW264.7 [4] = assay: (§1) Induction of phagocytosis in mouse RAW264.7 cells cultured with Escherichia coli ATCC 25922 assessed as number of surviving engulfed bacteria at 10 uM incubated for 24 hrs followed by bacterial exposure for 1 hr and further treated with gentamycin for 2 hrs by plate counting method (reference value: 37); assay type: functional
Neutrophil [5] = assay: Induction of wound healing in BALB/c mouse model of full-thickness wounds assessed as increase in number of neutrophil infiltration in wound skin at 50 ug/ml, TOP bid measured after 2 days by IHC analysis; assay type: functional, cell-based; conditions: dose 50.0 µg/ml, time 2.0 day
Mus musculus [6] = species on record: Mus musculus; assay: Induction of wound healing in BALB/c mouse model of full-thickness wounds assessed as increase in granulation tissue formation at 50 ug/ml, TOP bid measured after 8 days by H and E staining based analysis; assay type: functional; conditions: dose 50.0 µg/ml, time 8.0 day
[7] = (§2) Induction of wound healing in BALB/c mouse model of full-thickness wounds assessed as recruitment of M1-type macrophages in wound skin at 50 ug/ml, TOP bid measured after 2 days by flow cytometry (reference value: 60.9 %); assay type: functional; conditions: dose 50 µg/ml, time 2 day
Mus musculus [8] = species on record: Mus musculus; assay: as §2; assay type: functional; conditions: dose 50.0 µg/ml, time 2.0 day
Mast cell = assay: Inhibition of degranulation in mast cells (unknown origin) assessed as beta- hexosaminidase release upto 40 uM; assay type: functional, cell-based
HaCaT = assay: Induction of cell migration in human HaCaT cells assessed as formation of filopodia extensions at 20 uM measured after 24 hrs by immunofluorescence microscopy; assay type: functional, cell-based
[9] = Induction of TGF-beta1 level in Aprepitant-treated mouse RAW264.7 cells at 10 uM incubated for 24 hrs by ELISA; assay type: functional
Neutrophil [10] = assay: Induction of cell migration in BALB/c mouse neutrophils incubated for 8 hrs by transwell migration assay; assay type: functional, cell-based; conditions: dose 5-40 µM
RAW264.7 [11] = assay: as §1, with “2.5” for “10”; assay type: functional; conditions: time 27 hrs
Neutrophil [12] = assay: Induction of chemotaxis in BALB/c mouse neutrophils assessed as increase in ratio of cell polarization at 40 uM measured for 15 mins by Zigmond-chamber based microscopy (reference value: 14.6 %); assay type: functional; conditions: 0.25 h
[13] = Induction of wound healing in BALB/c mouse model of full-thickness wounds at 50 ug/ml, TOP bid measured after 2 days (reference value: 30.4 %); assay type: functional; conditions: dose 50 µg/ml, time 2 day
Bacillus subtilis = assay: Antimicrobial activity against Bacillus subtilis CMCC 63501 assessed as microbial growth inhibition at 100 uM; assay type: functional, organism-based
Mus musculus [14] = species on record: Mus musculus; assay: Induction of wound healing in BALB/c mouse model of full-thickness wounds assessed as decrease in TNF-alpha level in wound skin at 50 ug/ml, TOP bid measured after 4 days by ELISA; assay type: functional; conditions: dose 50.0 µg/ml, time 4.0 day
RAW264.7 [15] = assay: Upregulation of phosphorylated p38 level in Aprepitant-treated mouse RAW264.7 cells at 2.5 to 20 uM incubated for 4 hrs by Western blot analysis; assay type: functional, cell-based; conditions: dose 2.5-20 µM
[16] = Induction of wound healing in BALB/c mouse model of full-thickness wounds at 100 ug/ml, TOP bid measured after 2 days (reference value: 30.4 %); assay type: functional; conditions: dose 100 µg/ml, time 2 day
RAW264.7 [17] = assay: Upregulation of phosphorylated ERK level in Aprepitant-treated mouse RAW264.7 cells at 2.5 to 20 uM incubated for 4 hrs by Western blot analysis; assay type: functional, cell-based; conditions: dose 2.5-20 µM
Mus musculus [18] = species on record: Mus musculus; assay: Induction of wound healing in BALB/c mouse model of full-thickness wounds assessed as dense arrangement of collagen fibers at 50 to 200 ug/ml, TOP bid measured after 8 days by Masson's Trichome staining based analysis; assay type: functional; conditions: dose 50-200 µg/ml, time 8.0 day
Mus musculus [19] = species on record: Mus musculus; assay: Induction of wound healing in BALB/c mouse model of full-thickness wounds assessed as increase in TNF-alpha level in wound skin at 50 ug/ml, TOP bid measured after 2 days by ELISA; assay type: functional; conditions: dose 50.0 µg/ml, time 2.0 day
[20] = Induction of wound healing in BALB/c mouse model of full-thickness wounds at 200 ug/ml, TOP bid measured after 2 days (reference value: 30.4 %); assay type: functional; conditions: dose 200 µg/ml, time 2 day
RAW264.7 [21] = assay: Upregulation of phosphorylated p38 level in mouse RAW264.7 cells at 2.5 to 20 uM incubated for 4 hrs by Western blot analysis; assay type: functional, cell-based; conditions: dose 2.5-20 µM
HUVEC = assay: Induction of cell migration in HUVEC cells assessed as actin stress fiber formation at peripheral side of cytoplasmic membrane at 20 uM measured after 24 hrs by immunofluorescence microscopy; assay type: functional, cell-based; conditions: Homo sapiens
NIH3T3 = assay: Effect on TGF-1beta production in mouse 3T3 cells at 5 to 40 uM incubated for 24 hrs by ELISA; assay type: functional, cell-based; conditions: dose 5-40 µM
[22] = Toxicity in BALB/c mouse model of full-thickness wounds assessed as adverse effect in behaviour at 50 to 200 ug/ml, TOP bid measured upto 8 days; conditions: in vivo, topical_or_ocular, 192 h, dose 50-200 µg/ml, time < 8 day
RAW264.7 [23] = assay: Effect on total Smad2 level in mouse RAW264.7 cells at 2.5 to 20 uM incubated for 4 hrs by Western blot analysis; assay type: functional, cell-based; conditions: dose 2.5-20 µM
RAW264.7 [24] = assay: Induction of phagocytosis in mouse RAW264.7 cells cultured with Escherichia coli ATCC 25922 assessed as number of engulfed bacteria at 5 uM incubated for 24 hrs followed by bacterial exposure measured after 1 hr by plate counting method (reference value: 225); assay type: functional; conditions: time 25 hrs
RAW264.7 [25] = assay: Induction of phagocytosis in mouse RAW264.7 cells assessed as increase in neutral red dye uptake by measuring optical density at 540 nm at 10 uM incubated for 24 hrs followed by dye addition measured after 4 hrs by absorbance based assay (reference value: 0.073); assay type: functional; conditions: time 28 hrs
RAW264.7 [26] = assay: Upregulation of phosphorylated JNK level in Aprepitant-treated mouse RAW264.7 cells at 2.5 to 20 uM incubated for 4 hrs by Western blot analysis; assay type: functional, cell-based; conditions: dose 2.5-20 µM
RAW264.7 [27] = assay: Effect on total Smad3 level in mouse RAW264.7 cells at 2.5 to 20 uM incubated for 4 hrs by Western blot analysis; assay type: functional, cell-based; conditions: dose 2.5-20 µM
RAW264.7 [28] = assay: Induction of phagocytosis in mouse RAW264.7 cells assessed as increase in neutral red dye uptake by measuring optical density at 540 nm at 5 uM incubated for 24 hrs followed by dye addition measured after 4 hrs by absorbance based assay (reference value: 0.073); assay type: functional; conditions: time 28 hrs

## H-KPNPDRFYGLM-NH2
Pseudomonas aeruginosa
  Activity: inactive
Mus musculus [1]
  Activity: Active
RAW264.7 [2]
  Activity: Dose-Dependent Effect
[3]
  Activity: 38.7%
RAW264.7 [4]
  Activity: 25
Neutrophil [5]
  Activity: Active
Mus musculus [6]
  Activity: Active
[7]
  Activity: 79.2%
Mus musculus [8]
  Activity: Active
Mast cell
  inhibition: Active
HaCaT
  Activity: Active
[9]
  Activity: 43.7 pg/mL
Neutrophil [10]
  Activity: Dose-Dependent Effect
RAW264.7 [11]
  Activity: 30
Neutrophil [12]
  Activity: 50.4%
[13]
  Activity: 38.9%
Bacillus subtilis
  Activity: inactive
Mus musculus [14]
  Activity: Active
RAW264.7 [15]
  Activity: inactive
[16]
  Activity: 46.6%
RAW264.7 [17]
  Activity: inactive
Mus musculus [18]
  Activity: Active
Mus musculus [19]
  Activity: Active
[20]
  Activity: 52.8%
RAW264.7 [21]
  Activity: Active
HUVEC
  Activity: Active
NIH3T3
  Activity: inactive
[22]
  Activity: Non-Toxic
RAW264.7 [23]
  Activity: inactive
RAW264.7 [24]
  Activity: 302
RAW264.7 [25]
  OD: 0.107
RAW264.7 [26]
  Activity: inactive
RAW264.7 [27]
  Activity: inactive
RAW264.7 [28]
  OD: 0.103
